Measurements taken from US20110144345A1, “SULFOXYIMINO-SUBSTITUTED BENZOYL DERIVATIVE AND HERBICIDE” (NIPPON SODA CO., LTD., priority 2008, published 2011).

Experiments:
Scirpus juncoides = assay: Paddy pot test, herbicidal effect on Scirpus juncoides; assay type: in vivo; set-up: scale not given here; conditions: Screening, 63 g/ha, examined after 3 weeks
In short: (§1)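 Puddled paddy soil sown with barnyardgrass and Scirpus juncoides seeds. 2.5-leaf rice transplanted, pots flooded and kept in a greenhouse. Herbicidal effect (herbicidal index) and rice injury scored after 3 weeks.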

Echinochloa crus-galli = assay: Paddy pot test, herbicidal effect on Echinochloa crus-galli; assay type: in vivo; set-up: scale not given here; conditions: Screening, 63 g/ha, applied at 1.5-leaf stage, examined after 3 weeks
In short: as §1

rice plants = assay: Paddy pot test, harmful effects on transplanted rice plants; assay type: in vivo; set-up: scale not given here; conditions: Screening, 63 g/ha, applied at Echinochloa crus-galli 1.5-leaf stage, examined after 3 weeks
In short: as §1

| SMILES | melting point [°C] | Rice (harmful effects on the rice plants, index) (rice plants) | Scripus juncoides (herbicidal index) (Scirpus juncoides) | Echinochloa crus-galli (herbicidal index) (Echinochloa crus-galli) |
| --- | --- | --- | --- | --- |
| COc1ccc(C(=O)c2cnn(C)c2O)c(Cl)c1N=S1(=O)CCCC1C (stereo not drawn) [Example 218] | 84 to 86 | 0 | 7 | 6 |
| Cn1ncc(C(=O)c2cccc(N=S3(=O)CCCCC3)c2Br)c1O [Example 196] | 177 to 179 | 0 | 8 | 6 |
| COc1ccc(C(=O)c2cnn(C)c2OC(=O)SC)c(Cl)c1N=S1(=O)CCCCC1 [Example 154] | 163 to 165 | 0 | 8 | 10 |
| COc1ccc(C(=O)c2cnn(C)c2O)c(Cl)c1N=S(C)(C)=O [Example 150] | 164 to 166 | 0 | 8 | 5 |
| CSC(=O)Oc1c(C(=O)c2cccc(N=S3(=O)CCCCC3)c2C)cnn1C [Example 193] | 149 to 151 | 0 | 7 | 6 |
| CCn1ncc(C(=O)c2ccc(C#N)c(N=S3(=O)CCCCC3)c2Cl)c1O [Example 187] | 159 to 161 | 0 | 5 | 10 |
| C#CCOc1c(C(=O)c2ccc(OC)c(N=S3(=O)CCCCC3)c2Cl)cnn1C [Example 123] | 146 to 148 | 0 | 5 | 7 |
| COc1ccc(C(=O)c2cnn(C)c2OC(=O)c2ccc([N+](=O)[O-])cc2)c(Cl)c1N=S1(=O)CCCCC1 [Example 139] | 151 to 154 | 0 | 8 | 10 |
| COc1ccc(C(=O)C2=C(O)CCCC2=O)c(Cl)c1N=S(C)(C)=O [Example 149] | 150 to 152 | 0 | 6 | 5 |
| CCS(=O)(CC)=Nc1c(OC)ccc(C(=O)c2cnn(C)c2O)c1Cl [Example 247] | 165 to 168 | 0 | 9 | 10 |
| O=C1CCCC(O)=C1C(=O)c1ccc(OC(F)F)c(N=S2(=O)CCCCC2)c1Cl [Example 179] | 125 to 127 | 1 | 7 | 7 |
| CCn1ncc(C(=O)c2ccc(OC)c(N=S3(=O)CCCC3)c2Cl)c1O [Example 128] | 171 to 173 | 0 | 8 | 10 |
| COc1ccc(C(=O)C2=C(O)CCCC2=O)c(Cl)c1N=S1(=O)CCCC1 [Example 127] | 153 to 155 | 0 | 8 | 8 |
| COc1ccc(C(=O)c2cnn(C)c2[O-])c(Cl)c1N=S1(=O)CCCCC1.[Na+] [Example 115] | 224 to 226 | 0 | 8 | 10 |
| COC(=O)c1ccc(C(=O)c2cnn(C)c2O)c(Cl)c1N=S(C)(C)=O [Example 161] | 115 to 125 | 0 | 8 | 9 |
| COc1ccc(C(=O)c2cnn(C)c2O)c(Cl)c1N=S(C)(=O)C(C)C (stereo not drawn) [Example 210] | 167 to 169 | 0 | 9 | 6 |

The next lines start with results.

| melting point [°C] | Rice (harmful effects on the rice plants, index) (rice plants) | SMILES | Scripus juncoides (herbicidal index) (Scirpus juncoides) | Echinochloa crus-galli (herbicidal index) (Echinochloa crus-galli) |
| --- | --- | --- | --- | --- |
| 158 to 161 | 0 | Cn1ncc(C(=O)c2ccc(OC(F)F)c(N=S3(=O)CCCCC3)c2Cl)c1O [Example 181] | 9 | 10 |
| 122 to 124 | 0 | Cc1ccc(C(=O)c2c(C)nn(C)c2O)c(C)c1N=S1(=O)CCCCC1 [Example 109] | 8 | 7 |
| 138 to 140 | 0 | COc1ccc(C(=O)c2c(C)nn(C)c2O)c(Cl)c1N=S1(=O)CCCCC1 [Example 250] | 8 | 7 |
| 85 to 87 | 0 | COc1c(C(=O)c2cnn(C)c2O)ccc(C)c1N=S1(=O)CCCCC1 [Example 135] | 7 | 5 |
| 151 to 153 | 0 | COc1ccc(C(=O)c2cnn(C)c2O)c(OC)c1N=S1(=O)CCCC1 [Example 198] | 7 | 5 |
| 102 to 104 | 0 | CC(C)c1ccc(C(=O)c2cnn(C)c2O)c(Cl)c1N=S1(=O)CCCCC1 [Example 208] | 7 | 8 |
| 166 to 168 | 0 | Cc1c(N=S2(=O)CCCCC2)cccc1C(=O)c1cnn(C)c1O [Example 191] | 7 | 6 |
| 134 to 136 | 0 | COc1ccc(C(=O)c2cnn(C)c2O)c(Cl)c1N=S1(=O)CCCC1 [Example 126] | 8 | 10 |
